The values that follow come from patent US20260258084A1, “New Peptides as Selective IL-23 Receptor Antagonists” (Sanofi, priority 2022, published 2026).

The target of data set [1] is T1, human interleukin-23 receptor (recombinant human IL-23R-Fc chimera) (Homo sapiens, UniProt Q5VWK5).
T1 construct: Fc (IgG Fc fusion)
The data set can be described thus: Human ELISA IL23/IL23R (assay for specific human IL23R antagonists). In kind it is binding. Particulars: Table 10; read-out: Human ELISA IL23/IL23R IC50. The essentials:
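Plates coated overnight at 4 °C with human IL23 ([…]), blocked, then serially diluted peptides added with recombinant human IL-23R-Fc (0.1 μg/ml final) for 60 min at room temperature. Bound receptor detected with anti-human IgG1-HRP and fluorogenic peroxidase substrate.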
In general terms: In an ELISA, binding on a coated surface is turned into a signal by an enzyme label.

In data set [2] the test system is IL-23 induced STAT3 signaling in HEK-Blue™ IL-23 cells. The data set can be described thus: IL-23 induced STAT3 signaling in HEK-Blue IL-23 cells (SEAP reporter). The format is cell-based. As to conditions: human IL23 0.25 ng/ml, read-out: pSTAT3. The essentials:
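HEK-Blue IL-23 cells (10,000/well) pre-incubated 60 min at 37 °C with serially diluted peptides, then stimulated overnight with human IL-23 (0.25 ng/ml final). STAT3-driven SEAP in supernatant detected with QUANTI-Blue after 45 min at RT (OD 620-655 nm); dose-response curves fitted.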

In data set [3] the test system is T2, Pepsin.
T2 construct: purchased Merck Millipore
Briefly: Protease stability in simulated gastric fluid (Pepsin-SGF, FaSSGF). As to conditions: simulated gastric fluid with pepsin (Pepsin-SGF), 60 min, 1 μM peptide, 37° C., read-out: FaSSGF 60 (min), remaining percent of peptide. The format is in vitro ADME. The method, then: (§1) Studies were carried out in simulated intestinal fluid (SIF) and simulated gastric fluid (SGF) to evaluate gastric stability of the peptide compounds disclosed herein.
For clarification the term “Pepsin-SGF” refers to a solution of simulated gastric fluid containing pepsin whereas “SGF media” refers to a solution of simulated gastric fluid without pepsin. Pepsin-SGF was prepared by dissolving 320 mg Pepsin (Merck Millipore) in 100 mL SGF media concentrate (ProSense).
(§2) Peptides were first dissolved at 1 mM stock concentration in 0.01 HCl (+/−10% of DMSO) and were than diluted further with water to a stock concentration of 20 μM. Final peptide concentration in the incubation was 1 μM.
(§3) To 76 μL of the Pepsin-SGF buffer, 4 μL of the 20 μM peptide stock solution was added and incubated at 37° C. At each timepoint (0, 60, 120 and 240 minutes) the reaction was quenched with addition of 80 μL Ethanol (0.1% HCOOH). The samples were centrifuged for 20 minutes and an aliquot of the supernatant 100 μL were transferred to a LoBind-MTP plate and analyzed by LCMS/MS. The peak area response was calculated at each time point for each test compound. As internal reference, the peak area response of the same test compound at TO was calculated. The percent remaining at each timepoint was calculated based on the peak area response ratio of the test compound at TO. Time 0 was set to 100%, and all later timepoints were calculated relative to time 0.

For data set [4], the system named is Pancreatin. The data set can be described thus: Protease stability in simulated intestinal fluid (Pancreatin-SIF, FaSSIF). In kind it is in vitro ADME. As to conditions: 1 μM peptide, 37° C.; for remaining at 1 h, 1 µM: 60 min, read-out: FaSSIF 60 (min), remaining percent of peptide; for remaining at 2 h, 1 µM: 120 min, read-out: FaSSIF 120 (min), remaining percent of peptide; for remaining at 4 h, 1 µM: 240 min, read-out: FaSSIF 240 (min), remaining percent of peptide. The method, then:
as §1
Similarly, the term “Pancreatin-SIF” refers to a solution of simulated intestinal fluid containing pancreatin whereas “SIF-media” refers to a solution of simulated intestinal fluid without pancreatin.
Pancreatin-SIF was prepared by dissolving 1 mg Pancreatin (MP Biomedicals) in 10 mL SIF media concentrate (ProSense).
as §2
as §3, with “µM” for “μM”

Data set [5] in a line: Solubility testing of peptides at different pH. As to conditions: target concentration 1 mg/ml, 2 hours agitation. The format is physicochemical. The method, then:
Prior to the solubility measurement of a synthesized peptide batch, its purity was determined through UPLC/MS (methods B-G).
For solubility testing the target concentration was 1 mg pure compound/ml. Therefore, solutions from solid samples were prepared in a buffer system at a concentration of 1 mg/mL compound. The solid samples were obtained by drying down aliquots of a dimethyl sulfoxide stock solution using a Thermo Speedvac vacuum centrifuge. The dry down time was 3 hours. • Solubility buffer system A) 50 mM HCl pH 1.2 • Solubility buffer system B) 50 mM phosphate buffer pH 6.5 • Solubility buffer system C) 50 mM phosphate buffer pH 7.4 • Solubility buffer system D) 50 mM phosphate buffer pH 9.0
UPLC-UV (Method A) was performed after 2 hours of gentle agitation from the filtered (0.45 μm filter plates) solutions, which was obtained by 10 mins of centrifugation forced filtration at 1500 RCF (relative centrifugal acceleration).
The solubility was determined by the comparison of the UV peak area of 2 μL-injections of a buffered sample diluted 1:5 with a standard curve of a dimethyl sulfoxide reference sample of the diluted in dimethyl sulfoxide with known concentration. The different extinction coefficients were taken into account for the calculation.

Data set [6] in a line: Chemical stability assessment of peptides (relative purity loss). In kind it is physicochemical. Particulars: 24 hours at 37° C.; for Chemical stability (relative purity loss) Buffer pH 1.2: 50 mM HCl pH 1.2 + acetonitrile (1:1); for Chemical stability (relative purity loss) Buffer pH 6.5: 50 mM phosphate buffer pH 6.5 + acetonitrile (1:1); for Chemical stability (relative purity loss) Buffer pH 7.4: 50 mM phosphate buffer pH 7.4 + acetonitrile (1:1). The method, then:
Purity of a peptide batch was determined through UPLC/MS (Methods B-G) prior to chemical stability measurement. The target concentration was 1 mg/ml pure compound. Solutions from solid samples were prepared in the following buffer systems with a concentration of 1 mg/ml compound based on the previously determined % purity: • Solubility buffer system A) 50 mM HCl pH 1.2+Acetonitrile (1:1) • Solubility buffer system B) 50 mM phosphate buffer pH 6.5+Acetonitrile (1:1) • Solubility buffer system C) 50 mM phosphate buffer pH 7.4+Acetonitrile (1:1)
Prepared solutions were stored for 24 hours at 2° C. and 37° C. After this time course, the samples were centrifuged for 15 min at 2500 RCF to create a 1:5 dilution of the supernatant. Then 2 μl of the dilution were analysed with UHPLC-UV.
The chemical stability was rated through the relative loss of purity calculated by the equation:
[(purity after 0 hours at 37° C.)−(purity after 24 hours at 37° C.)]/(purity after 0 hours at 37° C.)]*100%
The purity is calculated as [(peak area peptide)/(total peak area)]*100%.

Where [7] appears, read: 50 mM HCl buffer, 50 mM HCl pH 1.2, read-out: Solubility Buffer pH 1.2.
[8] abbreviates: 50 mM phosphate buffer pH 6.5, read-out: Solubility Buffer pH 6.5.
Setting [9] is: 50 mM phosphate buffer pH 7.4, read-out: Solubility Buffer pH 7.4.
The mark [10] stands for this setting: 50 mM phosphate buffer pH 9.0, read-out: Solubility Buffer pH 9.0.

In brackets after ≈: the same amount, converted by molar mass. Where two headings read alike, the source gives them in different places. Starred links: 1 amine or outer side, 2 acyl side, 3 side chain; linkers in the order of their positions; H or OH if unused. Positions of bridges follow the written chain, without caps; N, C: chain ends. Non-standard residues stand in square brackets, D forms with d. Residues, ends and D or L forms follow the SMILES beside them. Groups on a side chain read outwards from the residue. *: point of attachment. Trp(7-Me) = Cc1cccc2c(C[C@H](N)C(=O)O)c[nH]c12; C18 diacid = O=C(O)CCCCCCCCCCCCCCCCC(=O)*; γGlu = O=C(O)[C@H](CCC(=O)[*:2])N[*:1]; 2Nal = N[C@@H](Cc1ccc2ccccc2c1)C(=O)O; 3Pal = N[C@@H](Cc1cccnc1)C(=O)O; Suc = O=C(CCC(=O)[*:2])[*:1]; AEEA = NCCOCCOCC(=O)O; Me2NCH2CH2 = CN(C)CC*; Aib = CC(C)(N)C(=O)O; Ava = NCCCCC(=O)O

The term share remaining denotes the share of the starting amount still present when the sample was taken. As to `CC(=O)NCCCC[C@@H]1NC(=O)[C@H](Cc2c[nH]c3c(C)cccc23)NC(=O)[C@H]([C@@H](C)O)NC(=O)[C@H](CC(N)=O)NC(=O)[C@@H]2CSSC[C@H](NC1=O)C(=O)N[C@@H](Cc1ccc(OCCN(C)C)cc1)C(=O)N[C@@H](Cc1ccc3ccccc3c1)C(=O)NC(C)(C)C(=O)N[C@H](C(=O)N[C@@H](CC(N)=O)C(=O)N[C@@H](Cc1c[nH]cn1)C(N)=O)CCC(=O)NCCCCC(=O)N2` [compound 20] ([Ava]CNT[Trp(7-Me)]K(Ac)CY(Me2NCH2CH2)[2Nal][Aib]ENH-NH2; disulfide 2-7; lactam N-11), in data set [1], the IC50 stood at 0.5 nM. In addition, the IC50 in data set [2] amounted to 3.12 nM. Besides, the amount remaining at 1 h, 1 µM in data set [3] is 95%. Besides, in data set [4], the fraction remaining at 1 h, 1 µM is 85%; the fraction remaining at 2 h, 1 µM was 81%; the fraction remaining at 4 h, 1 µM was 72%.
One may read the solubility as the concentration that dissolves in the medium under given conditions. Regarding `COc1ccc(C[C@@H]2NC(=O)[C@@H]3CSSC[C@H](NC(=O)[C@@H](NC(C)=O)CCCCNC(=O)C[C@@H](C(=O)N[C@@H](CC(N)=O)C(=O)N[C@@H](CC(N)=O)C(N)=O)NC(=O)C(C)(C)NC(=O)[C@H](Cc4ccc5ccccc5c4)NC2=O)C(=O)N[C@@H](CC(N)=O)C(=O)N[C@@H]([C@@H](C)O)C(=O)N[C@@H](Cc2c[nH]c4ccccc24)C(=O)N[C@@H](CCC(N)=O)C(=O)N3)cc1` [compound 7] (Ac-KCNTWQCY(Me)[2Nal][Aib]DNN-NH2; lactam 1-11; disulfide 2-7), the IC50 in data set [2] amounted to 25 nM. Further, in data set [5] (setting [7]), the solubility at 2 h came to 200 µg/mL (≈ 117 µM). Also, the solubility at 2 h in data set [5] (setting [8]) is 160 µg/mL (≈ 93.8 µM). In addition, the solubility at 2 h in data set [5] (setting [9]) amounted to 160 µg/mL (≈ 93.8 µM). For the same compound, the solubility at 2 h in data set [5] (setting [10]) was found to be 150 µg/mL (≈ 87.9 µM). Also, in data set [6], the “Chemical stability (relative purity loss) Buffer pH 1.2” value was 28.9%, the “Chemical stability (relative purity loss) Buffer pH 6.5” value came to 1.3% and the “Chemical stability (relative purity loss) Buffer pH 7.4” value is 6.0%. The amount remaining at 1 h, 1 µM in data set [3] is 0%. For the same compound, in data set [4], the share remaining at 1 h, 1 µM was 84%; the amount remaining at 2 h, 1 µM is 68%; the amount remaining at 4 h, 1 µM was 47%.
Take `CC(=O)NCCCC[C@@H]1NC(=O)[C@H](Cc2c[nH]c3c(C)cccc23)NC(=O)[C@H]([C@@H](C)O)NC(=O)[C@H](CC(N)=O)NC(=O)[C@@H]2CSSC[C@H](NC1=O)C(=O)N[C@@H](Cc1ccc(OCCN(C)C)cc1)C(=O)N[C@H](Cc1ccc3ccccc3c1)C(=O)NC1(CCOCC1)C(=O)N[C@H](C(=O)N[C@@H](CC(N)=O)C(=O)N[C@@H](Cc1cccnc1)C(=O)N(C)CC(N)=O)CCC(=O)NCCCCC(=O)N2` [compound 35]: the IC50 in data set [2] amounted to 0.34 nM. The solubility at 2 h in data set [5] (setting [7]) was ≥ 1070 µg/mL. Further, the solubility at 2 h in data set [5] (setting [8]) is ≥ 1030 µg/mL. In addition, the solubility at 2 h in data set [5] (setting [9]) was ≥ 1060 µg/mL. Moreover, in data set [5] (setting [10]), the solubility at 2 h was ≥ 1140 µg/mL. In data set [6], the “Chemical stability (relative purity loss) Buffer pH 1.2” value is 10.1%, the “Chemical stability (relative purity loss) Buffer pH 6.5” value is listed as 1.3% and the “Chemical stability (relative purity loss) Buffer pH 7.4” value is listed as 1.7%. For the same compound, the share remaining at 1 h, 1 µM in data set [3] was 92%. Further, in data set [4], the fraction remaining at 1 h, 1 µM was 91%; the fraction remaining at 2 h, 1 µM was 92%; the amount remaining at 4 h, 1 µM is 92%.
Consider `Cc1cccc2c(C[C@@H]3NC(=O)[C@H]([C@@H](C)O)NC(=O)[C@H](CC(N)=O)NC(=O)[C@@H]4CSSC[C@H](NC(=O)[C@H](CCC(N)=O)NC3=O)C(=O)N[C@@H](Cc3ccc(OCCN(C)C)cc3)C(=O)N[C@@H](Cc3ccc5ccccc5c3)C(=O)NC(C)(C)C(=O)N[C@H](C(=O)N[C@@H](CC(N)=O)C(=O)N[C@@H](Cc3cccnc3)C(=O)N[C@@H](CCCCNC(=O)COCCOCCNC(=O)COCCOCCNC(=O)CC[C@H](NC(=O)CCCCCCCCCCCCCCCCC(=O)O)C(=O)O)C(N)=O)CCCCNC(=O)CCC(=O)N4)c[nH]c12` [compound 71] (CNT[Trp(7-Me)]QCY(Me2NCH2CH2)[2Nal][Aib]KN[3Pal]K([AEEA-AEEA-γGlu-C18 diacid])-NH2; disulfide 1-6; linker N-10 via Suc), for which the figures for the IC50 in data set [1] and in data set [2] were 0.31 nM and 2.35 nM, respectively. Besides, in data set [3], the share remaining at 1 h, 1 µM was 76%.
